We go through 22 compounds from patent publication US12202818B2, “Compounds and methods for CD73 modulation and indications therefor” (Opna Bio SA, priority 2020, dated 2025).

Each structure is given as a SMILES string.

Assay [1] has as its target T1, Human CD73 (amino acid residues 27-549) (Homo sapiens, UniProt P21589).
T1 construct: Human CD73 (amino acid residues 27-549); His tag (N); made in house; host or cells: E. coli
T1 sequence (P21589 27-549): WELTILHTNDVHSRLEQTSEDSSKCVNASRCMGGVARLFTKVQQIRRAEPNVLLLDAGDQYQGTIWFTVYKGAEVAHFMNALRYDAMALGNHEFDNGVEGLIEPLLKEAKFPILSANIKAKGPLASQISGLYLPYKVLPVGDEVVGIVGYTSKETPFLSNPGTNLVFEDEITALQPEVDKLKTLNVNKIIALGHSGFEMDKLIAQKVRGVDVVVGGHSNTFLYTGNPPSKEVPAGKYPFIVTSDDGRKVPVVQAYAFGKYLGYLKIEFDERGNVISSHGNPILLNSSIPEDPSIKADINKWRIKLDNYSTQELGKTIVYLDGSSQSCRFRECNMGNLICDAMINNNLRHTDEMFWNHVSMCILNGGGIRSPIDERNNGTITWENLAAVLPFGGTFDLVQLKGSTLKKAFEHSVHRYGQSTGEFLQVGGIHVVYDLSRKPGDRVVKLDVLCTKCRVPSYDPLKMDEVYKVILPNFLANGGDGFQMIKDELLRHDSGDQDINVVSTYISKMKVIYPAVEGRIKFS
Nature of the assay: CD73 enzymatic assay (luciferase-based indirect assay, CellTiter-Glo). The settings on record: 0.4 nM CD73, 150 μM AMP, 1 hour at room temperature. In kind it is biochemical. Put shortly:
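Luciferase-coupled readout: AMP left after CD73 turnover suppresses CellTiter-Glo signal (1 μM ATP final, 30 min RT). Reaction beforehand: 150 μM AMP, 0.4 nM E. coli-made His-tagged CD73 residues 27-549, test compound, HEPES pH 7.4 with Tween-20, 1 h RT. % inhibition fitted nonlinearly for IC50.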
A general note: In ATP-based viability assays light output follows the ATP content of the culture.

A further assay addresses T2, human CD73 (Homo sapiens, UniProt P21589).
T2 construct: expressed in transfected cells
T2 sequence (P21589 27-549): T1 sequence (P21589 27-549)
Nature of the assay: Inhibitor activity against CD73 in cell based assay (CD73 expressing CHO-K1 cells). The note with it: CHO-K1 cells expressing human CD73, 150 μM AMP, 4 hours of incubation; read-out: CHO-K1 CELL_VARIANT: CD73 IC50. Put shortly: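 AMP (150 μM) was added alongside 8 titrated compound doses (maximum 10 μM, 1:3 steps) to CHO-K1 cells stably expressing human CD73. After 4 h, supernatant AMP was measured indirectly with CellTiter-Glo 2.0 plus 1 μM ATP (30 min, RT). % inhibition versus high and low controls was fitted nonlinearly for IC50.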

By IC50 is commonly meant the concentration that inhibits the measured activity by half. On to `Cc1cc(NS(=O)(=O)C2CC2)ccc1-c1ccnc(O[C@@H]2CCN(c3cn[nH]c(=O)c3Cl)C2)c1` [P-0210, (R)-N-(4-(2-((1-(5-chloro-6-oxo-1,6-dihydropyridazin-4-yl)pyrrolidin-3-yl)oxy)pyridin-4-yl)-3-methylphenyl)cyclopropane-sulfonamide], for which the IC50 (in assay [1]; on human CD73) was 0.001 to 10 µM throughout.
On to `O=C(Nc1ccc(-c2ccnc(O[C@@H]3CCN(c4cn[nH]c(=O)c4Cl)C3)c2)c(F)c1)NC1CC1` [P-0211, (R)-1-(4-(2-((1-(5-chloro-6-oxo-1,6-dihydropyridazin-4-yl)pyrrolidin-3-yl)oxy)pyridin-4-yl)-3-fluorophenyl)-3-cyclopropylurea], for which the IC50 (in assay [1]; at human CD73) was 0.001 to 10 µM in each case.
Turning to `O=C(Nc1ccc(-c2ccnc(O[C@@H]3CCN(c4cn[nH]c(=O)c4Cl)C3)c2)c(F)c1)C1CCC1` [P-0212, (R)-N-(4-(2-((1-(5-chloro-6-oxo-1,6-dihydropyridazin-4-yl)pyrrolidin-3-yl)oxy)pyridin-4-yl)-3-fluorophenyl)cyclobutane-carboxamide], the IC50 (in assay [1]; at human CD73) was 0.001 to 10 µM in each case.
As for `CC(=O)Nc1ccc(-c2ccnc(O[C@@H]3CCN(c4cn[nH]c(=O)c4Cl)C3)c2)c(F)c1` [P-0213, (R)-N-(4-(2-((1-(5-chloro-6-oxo-1,6-dihydropyridazin-4-yl)pyrrolidin-3-yl)oxy)pyridin-4-yl)-3-fluorophenyl)acetamide], the IC50 (in assay [1]; at human CD73) was 0.001 to 10 µM each time.
`O=C(Nc1ccc(-c2ccnc(O[C@@H]3CCN(c4cn[nH]c(=O)c4Cl)C3)c2)c(F)c1)c1ccccc1` [P-0214, (R)-N-(4-(2-((1-(5-chloro-6-oxo-1,6-dihydropyridazin-4-yl)pyrrolidin-3-yl)oxy)pyridin-4-yl)-3-fluorophenyl)benzamide]: the IC50 (in assay [1]; on human CD73) was 0.001 to 10 µM in each case.
Regarding `O=c1[nH]ncc(N2CC[C@@H](Oc3cc(-c4ccnc(O[C@@H]5CCN(c6cn[nH]c(=O)c6Cl)C5)c4)ccn3)C2)c1Cl` [P-0215, 5,5′-((3R,3′R)-([4,4′-bipyridine]-2,2′-diylbis(oxy))bis(pyrrolidine-3,1-diyl))bis(4-chloropyridazin-3(2H)-one)], the IC50 in assay [1] lay within 0.001 to 10 µM; on human CD73 it was 10 to 100 µM.
The corresponding values for `CCCNS(=O)(=O)c1ccc(-c2cc(F)nc(O[C@@H]3CCN(c4cn[nH]c(=O)c4Cl)C3)c2)c(C)c1` [P-0216, (R)-4-(2-((1-(5-chloro-6-oxo-1,6-dihydropyridazin-4-yl)pyrrolidin-3-yl)oxy)-6-fluoropyridin-4-yl)-3-methyl-N-propylbenzenesulfonamide] are 0.001 to 10 µM and 0.001 to 10 µM.
The like results for `Cc1cc(S(=O)(=O)NC2CC2)ccc1-c1cc(F)nc(O[C@@H]2CCN(c3cn[nH]c(=O)c3Cl)C2)c1` [P-0217, (R)-4-(2-((1-(5-chloro-6-oxo-1,6-dihydropyridazin-4-yl)pyrrolidin-3-yl)oxy)-6-fluoropyridin-4-yl)-N-cyclopropyl-3-methylbenzenesulfonamide] were, in that order, 0.001 to 10 µM and 0.001 to 10 µM.
Turning to `COC(=O)Cc1ccc(-c2ccnc(O[C@@H]3CCN(c4cn[nH]c(=O)c4Cl)C3)c2)c(F)c1` [P-0218, methyl (R)-2-(4-(2-((1-(5-chloro-6-oxo-1,6-dihydropyridazin-4-yl)pyrrolidin-3-yl)oxy)pyridin-4-yl)-3-fluorophenyl)acetate], the IC50 (in assay [1]; on human CD73) was 0.001 to 10 µM throughout.
For `O=C(O)Cc1ccc(-c2ccnc(O[C@@H]3CCN(c4cn[nH]c(=O)c4Cl)C3)c2)c(F)c1` [P-0219, (R)-2-(4-(2-((1-(5-chloro-6-oxo-1,6-dihydropyridazin-4-yl)pyrrolidin-3-yl)oxy)pyridin-4-yl)-3-fluorophenyl)acetic acid], the values for the IC50 (in assay [1]; on human CD73) were 0.001 to 10 µM and 10 to 100 µM, respectively.
As for `Nc1ccc(-c2ccnc(O[C@@H]3CCN(c4cn[nH]c(=O)c4Cl)C3)c2)c(F)c1` [P-0220, (R)-5-(3-((4-(4-amino-2-fluorophenyl)pyridin-2-yl)oxy)pyrrolidin-1-yl)-4-chloropyridazin-3(2H)-one], the IC50 (in assay [1]; on human CD73) was 0.001 to 10 µM in each case.
With `O=c1[nH]ncc(N2CC[C@@H](Oc3cc(N4CCC(NS(=O)(=O)C5CC5)CC4)ccn3)C2)c1Cl` [P-0221, (R)-N-(1-(2-((1-(5-chloro-6-oxo-1,6-dihydropyridazin-4-yl)pyrrolidin-3-yl)oxy)pyridin-4-yl)piperidin-4-yl)cyclopropanesulfonamide], the IC50 (in assay [1]; at human CD73) was 0.001 to 10 µM each time.
For the compound `O=C(NC1CCN(c2ccnc(O[C@@H]3CCN(c4cn[nH]c(=O)c4Cl)C3)c2)CC1)C1CC1` [P-0222, (R)-N-(1-(2-((1-(5-chloro-6-oxo-1,6-dihydropyridazin-4-yl)pyrrolidin-3-yl)oxy)pyridin-4-yl)piperidin-4-yl)cyclopropanecarboxamide], the IC50 (in assay [1]; on human CD73) was 0.001 to 10 µM each time.
With `CCCNS(=O)(=O)c1ccc(-c2ccnc(O[C@@H]3CCN(c4cn[nH]c(=O)c4Cl)C3)c2)cc1` [P-0223, (R)-4-(2-((1-(5-chloro-6-oxo-1,6-dihydropyridazin-4-yl)pyrrolidin-3-yl)oxy)pyridin-4-yl)-N-propylbenzenesulfonamide], the IC50 (in assay [1]; on human CD73) was 0.001 to 10 µM throughout.
In the case of `Cc1cc(S(=O)(=O)NC2CC2)cc(F)c1-c1ccnc(O[C@@H]2CCN(c3cn[nH]c(=O)c3Cl)C2)c1` [P-0224, (R)-4-(2-((1-(5-chloro-6-oxo-1,6-dihydropyridazin-4-yl)pyrrolidin-3-yl)oxy)pyridin-4-yl)-N-cyclopropyl-3-fluoro-5-methylbenzenesulfonamide], the 50% inhibitory concentration (IC50) (in assay [1]; on human CD73) was 0.001 to 10 µM throughout.
As to `CCCNS(=O)(=O)c1cc(C)c(-c2ccnc(O[C@@H]3CCN(c4cn[nH]c(=O)c4Cl)C3)c2)c(F)c1` [P-0225, (R)-4-(2-((1-(5-chloro-6-oxo-1,6-dihydropyridazin-4-yl)pyrrolidin-3-yl)oxy)pyridin-4-yl)-3-fluoro-5-methyl-N-propylbenzenesulfonamide], the IC50 (in assay [1]; on human CD73) was 0.001 to 10 µM throughout.
Turning to `CCCNS(=O)(=O)N1CCN(c2ccnc(O[C@@H]3CCN(c4cn[nH]c(=O)c4Cl)C3)c2)CC1` [P-0226, (R)-4-(2-((1-(5-chloro-6-oxo-1,6-dihydropyridazin-4-yl)pyrrolidin-3-yl)oxy)pyridin-4-yl)-N-propylpiperazine-1-sulfonamide], the IC50 (in assay [1]; at human CD73) was 0.001 to 10 µM in each case.
On to `COc1cc(S(=O)(=O)NC2CC2)ccc1-c1ccnc(O[C@@H]2CCN(c3cn[nH]c(=O)c3Cl)C2)c1` [P-0227, (R)-4-(2-((1-(5-chloro-6-oxo-1,6-dihydropyridazin-4-yl)pyrrolidin-3-yl)oxy)pyridin-4-yl)-N-cyclopropyl-3-methoxybenzenesulfonamide], for which the IC50 (in assay [1]; on human CD73) was 0.001 to 10 µM in each case.
For `CC(C)(O)Cn1cc(-c2ccnc(O[C@@H]3CCN(c4cn[nH]c(=O)c4Cl)C3)c2)cn1` [P-0228, (R)-4-chloro-5-(3-((4-(1-(2-hydroxy-2-methylpropyl)-1H-pyrazol-4-yl)pyridin-2-yl)oxy)pyrrolidin-1-yl)pyridazin-3(2H)-one], the IC50 (in assay [1]; on human CD73) was 0.001 to 10 µM throughout.
For `O=c1[nH]ncc(N2CC[C@@H](Oc3cc(N4CCN(S(=O)(=O)NC5CC5)CC4)ccn3)C2)c1Cl` [P-0229, (R)-4-(2-((1-(5-chloro-6-oxo-1,6-dihydropyridazin-4-yl)pyrrolidin-3-yl)oxy)pyridin-4-yl)-N-cyclopropylpiperazine-1-sulfonamide], the IC50 (in assay [1]; on human CD73) was 0.001 to 10 µM throughout.
`O=c1[nH]ncc(N2CC[C@@H](Oc3cc(-c4ccc(S(=O)(=O)NC5CC5)cc4Cl)ccn3)C2)c1Cl` [P-0230, (R)-3-chloro-4-(2-((1-(5-chloro-6-oxo-1,6-dihydropyridazin-4-yl)pyrrolidin-3-yl)oxy)pyridin-4-yl)-N-cyclopropylbenzenesulfonamide]: the IC50 (in assay [1]; at human CD73) was 0.001 to 10 µM in each case.
`O=c1[nH]ncc(N2CC[C@@H](Oc3cc(-c4ccc(C(F)(F)F)nc4)ccn3)C2)c1Cl` [P-0231, (R)-4-chloro-5-(3-((6-(trifluoromethyl)-[3,4′-bipyridin]-2′-yl)oxy)pyrrolidin-1-yl)pyridazin-3(2H)-one]: the IC50 (in assay [1]; on human CD73) was 0.001 to 10 µM in each case.
